pEC50, pIC50: −log10 of the molar value. Values after ≈ are worked out from the molar mass of the structure shown. Where two headings read alike, the source gives them in different places.
Key:
HIV-1 RT = target: T1, HIV-1 RT (Human immunodeficiency virus type 1 group M subtype B, UniProt P03366); experiment: Anti-HIV-1 RT assay (recombinant enzyme); type: biochemical; conditions: for inhibition at 200 µg/mL: read-out: Anti-HIV-1 RT % Inhibition at 200 μg/ml
T1 construct: made in house; host or cells: Escherichia coli

HIV-1 (strain LAV-1) = experiment: microbe, parasite or virus in culture; type: cell-based; conditions: for pEC50: Human immunodeficiency virus 1, PBMC, human PBM cells infected with HIV-1 (strain LAV), read-out: Ant-HIV-1 in PBM cells EC50
[1] = Cytotoxicity in uninfected PHA-stimulated human PBM cells; conditions: human
human PBM cells = experiment: as above
[2] = test system: Influenza A (H1N1) Texas/36/91; experiment: microbe, parasite or virus in culture; type: cell-based, influenza A virus; conditions: Influenza A virus, MDCK; Influenza A (H1N1) Texas/36/91; read-out: CPE Inhibition EC50
[3] = test system: Influenza A (H1N1) Texas/36/91; experiment: microbe, parasite or virus in culture; type: cell-based, influenza A virus; conditions: Influenza A virus, MDCK; Influenza A (H1N1) Texas/36/91; read-out: Neutral Red EC50
[4] = test system: Influenza A (H3N2) Beijing/32/92; experiment: microbe, parasite or virus in culture; type: cell-based, influenza A virus; conditions: Influenza A virus, MDCK; Influenza A (H3N2) Beijing/32/92; read-out: CPE Inhibition EC50
[5] = test system: Influenza A (H3N2) Beijing/32/92; experiment: microbe, parasite or virus in culture; type: cell-based, influenza A virus; conditions: Influenza A virus, MDCK; Influenza A (H3N2) Beijing/32/92; read-out: Neutral Red EC50
Influenza B Panama/45/90 = experiment: microbe, parasite or virus in culture; type: cell-based; conditions: Influenza B virus, MDCK; Influenza B Panama/45/90; read-out: CPE Inhibition EC50
Measles Virus [6] = experiment: microbe, parasite or virus in culture; type: cell-based; conditions: Measles morbillivirus, BSC-1; Measles Virus; read-out: CPI Inhibition EC50
Measles Virus [7] = experiment: Measles virus neutral red dye uptake in BSC-1 cells; type: cell-based; conditions: Measles morbillivirus, BSC-1
Adenovirus Type 5 [8] = experiment: microbe, parasite or virus in culture; type: cell-based; conditions: Human mastadenovirus C, A549, read-out: CPE Inhibition EC50
Adenovirus Type 5 [9] = experiment: Adenovirus type 5 neutral red dye uptake in A549 cells; type: cell-based; conditions: Human mastadenovirus C, A549; Adenovirus Type 5; read-out: Neutral Red EC50
[10] = test system: Parainfluenza Type 3 Virus; experiment: organism not typed; type: cell-based; conditions: MA104; Parainfluenza Type 3 Virus; read-out: CPI Inhibition EC50
[11] = test system: Parainfluenza Type 3 Virus; experiment: organism not typed; type: cell-based; conditions: MA104, read-out: Neutral Red EC50
[12] = test system: Respiratory Syncytial Virus; experiment: microbe, parasite or virus in culture; type: cell-based; conditions: human respiratory syncytial virus, MA104; read-out: CPE Inhibition EC50
[13] = test system: Respiratory Syncytial Virus; experiment: microbe, parasite or virus in culture; type: cell-based; conditions: human respiratory syncytial virus, MA104; read-out: Neutral Red EC50
[14] = test system: Madin Darby canine kidney (MDCK) cells; conditions: Influenza A (H3N2) test
in vitro [15] = conditions: dog
in vitro [16] = conditions: dog, Neutral Red IC50 (cytotoxic)
in vitro [17] = conditions: human
in vitro [18] = conditions: African green monkey, Neutral Red IC50 (cytotoxic)
in vitro [19] = conditions: human; remark: listed apart in the source
in vitro [20] = conditions: human; remark: listed apart in the source
HCMV = HCMV CPE inhibition in HFF cells
HSV-1 = HSV-1 CPE inhibition in HFF cells
HSV-2 = HSV-2 CPE inhibition in HFF cells
VZV = VZV plaque reduction assay in HFF cells
[21] = Cytotoxicity by neutral red dye uptake, A549 cells; conditions: human, A549 cells (toxicity control wells)
[22] = Cytotoxicity by neutral red dye uptake, MA-104 cells; conditions: African green monkey, MA-104 cells (toxicity control wells), Neutral Red IC50 (cytotoxic), Respiratory Syncytial Virus test
Hepatitis B Virus (HBV) = experiment: Inhibition of HBV replication in 2.2.15 cells, extracellular (virion) HBV DNA; conditions: Hepatitis B virus, 216 h;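 also: extracellular virion HBV DNA in culture medium measured by slot blot hybridization with a 32P-labeled HBV probe, quantified against HBV DNA standards, after 9 days of daily dosing, compared with day 0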
Experimental: Test compounds were added daily for a nine continuous day period; the culture medium was collected and stored for analysis of extracellular (virion) HBV DNA after 0, 3, 6, and 9 days of treatment. The treated cells were lysed 24 hours following day 9 of treatment for the analysis of intracellular HBV genomic forms. The overall levels of HBV DNA (both extracellular and intracellular DNA) and the relative rate of HBV replication (intracellular DNA) were analyzed quantitatively. The analysis was performed using blot hybridization techniques and [^32P]-labeled HBV-specific probes. The HBV DNA levels were measured by comparison to known amounts of HBV DNA standards applied to every nitrocellulose membrane (gel or slot blot). An AMBIS beta scanner, which measures the radioactive decay of the hybridized probes directly from the nitrocellulose membranes, was used for the quantitative analysis. Standard curves, generated by multiple analyses, were used to correlate CPM measurements made by the beta scanner with relative levels of target HBV DNA. The levels of HBV virion DNA released into the culture medium were analyzed by a slot blot hybridization procedure. HBV DNA levels were then compared to those at day 0 to determine the effect of the test compound. A known positive drug was evaluated in parallel with test compounds in each test.
Determination of therapeutic concentrations (EC50 and EC90) and toxicity concentrations (IC50) were determined as previously described (90). Stock solutions of text drugs were prepared in DMSO. Culture medium was changed daily and analyzed for extracellular HBV DNA after nine days of continuous drug exposure. Extracellular HBV DNA was extracted from the culture media and analyzed by a slot blot hydridization technique, using a ^32P-labeled Eco RI HBV DNA fragment, as previously described (91), and quantitated via comparison to HBV standards on a nitrocellulose filter, using an AMBIS beta scanner. Toxicity was determined by measuring inhibition of neutral red dye uptake. […] Effective concentration values for individual agents are the mean of six cultures per concentration point. Toxicity values are the mean of three cultures per concentration point.

[23] = Anti-HIV-1 RT IC50, values in parentheses or in words
[24] = HIV-1 RT IC50 (50% inhibition dose)

## O=C1CC(c2ccc(O)cc2)Oc2c1c(O)cc(O)c2C1C(=O)c2c(O)cc(O)cc2OC1c1ccc(O)cc1 (centres unmarked) [GB-1a(13), GB-1a]
HIV-1 RT; [23]
  pIC50: 3.63
HIV-1 RT; [24]
  pIC50: 3.63
HIV-1 RT
  inhibition at 200 µg/mL: 86%
HIV-1 (strain LAV-1)
  anti-HIV-1 activity in PBM cells (in words): good activity
  pEC50: 4.42
HIV-1 (strain LAV-1); PBM cells
  Selective Index (SI): 2.3
[1]
  pIC50: 4.06
Human PBM cells
  toxicity against uninfected PHA-stimulated human PBM cells (in words): high toxicity

## O=c1cc(-c2ccc(O)c(-c3c(O)cc(O)c4c(=O)cc(-c5ccc(O)cc5)oc34)c2)oc2cc(O)cc(O)c12 [Amentoflavone (1), amentoflavone]
[2]
  EC50: 3.1 µg/mL (≈ 5.76 µM)
[3]
  EC50: 5.3 µg/mL (≈ 9.84 µM)
[4]
  EC50: 4.3 µg/mL (≈ 7.99 µM)
[5]
  EC50: 6.5 µg/mL (≈ 12.1 µM)
Influenza B Panama/45/90
  EC50: 0.56 µg/mL (≈ 1.04 µM)
Measles Virus [6]
  EC50: < 40 µg/mL
Measles Virus [7]
  EC50: < 20 µg/mL
Adenovirus Type 5 [8]
  EC50: > 100 µg/mL
Adenovirus Type 5 [9]
  EC50: > 100 µg/mL
[10]
  EC50: > 100 µg/mL
[11]
  EC50: ~32 µg/mL (≈ 59.4 µM)
[12]
  EC50: ~10 µg/mL (≈ 18.6 µM)
[13]
  EC50: ~21 µg/mL (≈ 39 µM)
HIV-1 RT; [23]
  pIC50: 3.92
HIV-1 RT; [24]
  pIC50: 3.92
HIV-1 RT
  inhibition at 200 µg/mL: 97.3%
HIV-1 (strain LAV-1)
  pEC50: < 4.96
[14]
  CPE Inhibition IC50 (cytotoxic): >100 µg/mL
In vitro [15]; CPE Inhibition IC50 (50% cell inhibitory (cytotoxic) concentration), Influenza A (H1N1) test
  IC50: 22 µg/mL (≈ 40.9 µM)
In vitro [15]; CPE Inhibition IC50 (cytotoxic), Influenza A (H3N2) test
  IC50: > 100 µg/mL
In vitro [15]; CPE Inhibition IC50 (cytotoxic), Influenza B test
  IC50: 100 µg/mL (≈ 186 µM)
In vitro [16]; Influenza A (H1N1) test
  IC50: > 100 µg/mL
In vitro [16]; Influenza A (H3N2) test
  IC50: > 100 µg/mL
In vitro [17]
  IC50: 18 µg/mL (≈ 33.4 µM)
In vitro [18]
  IC50: ~56 µg/mL (≈ 104 µM)
In vitro [19]
  pIC50: 4.46
In vitro [20]; HCMV CPE Inhibition CC50
  CC50 at 14 days: > 100 µg/mL
In vitro [20]; HSV-1 CPE Inhibition CC50
  CC50 at 3 days: > 100 µg/mL
In vitro [20]; HSV-2 CPE Inhibition CC50
  CC50 at 3 days: > 100 µg/mL
In vitro [20]; VZV Plaque Reduction CC50
  CC50 at 10 days: 9.3 µg/mL (≈ 17.3 µM)
HCMV; HFF Cells
  HCMV SI (CC50/EC50): >1.9
HCMV; Human betaherpesvirus 5, HFF, read-out: HCMV CPE Inhibition EC50
  EC50: 50.8 µg/mL (≈ 94.3 µM)
HSV-1; HFF Cells
  HSV-1 SI (CC50/EC50): >5.6
HSV-1; Human alphaherpesvirus 1, HFF, read-out: HSV-1 CPE Inhibition EC50
  EC50: 17.9 µg/mL (≈ 33.2 µM)
HSV-2; HFF Cells
  HSV-2 SI (CC50/EC50): >2.1
HSV-2; Human alphaherpesvirus 2, HFF, read-out: HSV-2 CPE Inhibition EC50
  EC50: 48 µg/mL (≈ 89.1 µM)
VZV; HFF Cells
  VZV SI (CC50/EC50): <2.3
VZV; Human alphaherpesvirus 3, HFF, read-out: VZV Plaque Reduction EC50
  EC50: > 4 µg/mL
[21]
  IC50: 74 µg/mL (≈ 137 µM)
[22]
  IC50: ~35 µg/mL (≈ 65 µM)
Hepatitis B Virus (HBV); read-out: EC50 (50% effective dose), HBV Virion, 2.2.15 cells, extracellular (virion) HBV DNA, 9 days treatment
  pEC50: < 4.00
Hepatitis B Virus (HBV); read-out: EC90 (90% effective dose), HBV Virion, 2.2.15 cells, extracellular (virion) HBV DNA, 9 days treatment
  EC90: > 100 µM
